Measured values as given in PMC2848619, “The Combinatorial PP1-Binding Consensus Motif (R/K)x (0,1)V/IxFxx(R/K)x(R/K) Is a New Apoptotic Signature” (PLoS ONE, 2010).
Where a SMILES comes first, the peptide text is derived from it. Where no end group is shown, it is not given here. The star is where a group is joined. Biotin = O=C1N[C@H]2[C@H](CS[C@H]2CCCCC(=O)*)N1

Assays:
[1] = tested on: HeLa cells; assay: Quantification of peptide internalization: intracellular delivery of streptavidin-peroxidase (OPD); format: cell-based, human; details: 6 hrs at 37°C, compared with TAT peptide
Procedure: Before incubation, the peptides were preincubated for 1 h with streptavidin HRP conjugate in a 4/1 ratio. Cells at 80% confluence were incubated with different concentrations of peptide in 24-well plates. After 6 h, cells were washed twice in PBS, trypsinized (Trypsin EDTA, Invitrogen) and harvested in 1 ml of PBS and counted. Cells were lysed in 300 µl of 0.1 M Tris pH 7.4, and 0.5% Nonidet P-40 buffer for 10 min on ice. A total of 50 µl of cell lysate was mixed with 50 µl of OPD buffer (51.4 mM Na2HPO4 and 24.3 mM citric acid) then mixed with 100 µl of OPD solution (one OPD tablet from Sigma (St. Louis MO) in 100 ml of OPD buffer to which 40 µl of 30% hydrogen peroxide was added just before use). After 10 to 20 min, the reaction was stopped by adding 100 µl of 1 M HCl, and optical density was read at 490 nm.

[2] = tested on: PP1c; assay: Pull down assay of biotinylated peptides with PP1c from HeLa cell extracts; format: binding, human; details: peptide 100 µM on streptavidin magnetic beads, HeLa cell lysate, 2 h 4°C, western blot with PP1 antibodies
Procedure: Biotinylated peptides were pre-incubated for 2 h at 100 µM (final concentration with lysate) and room temperature with 30 µl of streptavidin-coated immunomagnetic beads (Calbiochem, San Diego CA). During this time, 1×10^6 HeLa cells at 90% of confluence per test peptide were washed with PBS, trypsinized, harvested with PBS, washed with 1 ml of PBS, and centrifuged at 600 g and 4°C for 10 min. Cell pellets were lysed 10 min on ice with 400 µl of lysis buffer (50 mM Tris pH 7.4, 200 mM NaCl, 10 mM EDTA, 20% Glycerol, 1% Nonidet P-40, 1 mM phenylmethylsulfonyl fluoride (PMSF), 10 mM NaF, 1 mM orthovanadate, and “complete mini EDTA free” protease inhibitor cocktail from Roche). Lysates were clarified at 13,000 g for 10 min at 4°C and after rotation with supernatant at 4°C for 2 h, biotinylated peptides were pulled down with streptavidine magnetic beads and washed twice with 750 µl of lysis buffer. Bound proteins and clarified lysates were analyzed by western blotting using PP1 antibodies.

[3] = Apoptotic effect of DPT-APAF peptides (abstract only); format: cell-based; details: stated in abstract only
[4] = tested on: PP1c; assay: PP1c binding of DPT-APAF peptides (abstract only); details: stated in abstract only

## CC[C@H](C)[C@H](NC(=O)[C@@H](NC(=O)CNC(=O)[C@H](CCCCN)NC(=O)CCCC[C@@H]1SC[C@@H]2NC(=O)N[C@@H]21)C(C)C)C(=O)N[C@@H](Cc1ccccc1)C(=O)N[C@@H](Cc1ccc(O)cc1)C(=O)N[C@@H](CC(C)C)C(=O)N[C@@H](CCCNC(=N)N)C(=O)N[C@@H](CC(=O)O)C(=O)N[C@@H](CCCCN)C(=O)O [DPT-AIF1] (Biotin-KGVIFYLRDK-OH)
[1]
  Ability to internalize Streptavidin-HRP conjugated molecules (in words): able to internalize Streptavidin-HRP conjugated molecules even more efficiently than the well characterized positive control TAT peptide

## CC[C@H](C)[C@H](NC(=O)[C@@H](NC(=O)CNC(=O)[C@H](CCCCN)NC(=O)CCCC[C@@H]1SC[C@@H]2NC(=O)N[C@@H]21)C(C)C)C(=O)N[C@@H](C)C(=O)N[C@@H](Cc1ccc(O)cc1)C(=O)N[C@@H](CC(C)C)C(=O)N[C@@H](CCCNC(=N)N)C(=O)N[C@@H](CC(=O)O)C(=O)N[C@@H](CCCCN)C(=O)O [DPT-AIF2] (Biotin-KGVIAYLRDK-OH)
[1]
  Ability to internalize Streptavidin-HRP conjugated molecules (in words): not DPT-AIF2

## DPT-AIF4: mutated peptide of 8 accessible residues of AIF564–571 containing the F566A mutation (Biotin-VIAYLRDK)
[2]
  Co-precipitation of PP1c with biotinylated peptide: unable to co-precipitate PP1c

## DPT-APAF1: bi-partite cell penetrating peptide containing APAF-1_122–131 linked to DPT-sh1 peptide shuttle (RPVVFVTRKK; also: linked to DPT-sh1 shuttle peptide, junction not given here; UniProt O14727 122-131, looked up, fragment)
[3]
  Apoptotic effect: death molecule
[4]
  PP1c binding: PP1-interacting
